Inconclusive results are not listed. Activity calls are given as the source filed them.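 The calls were made as follows: active = Compounds that reduce signal, with fitted half-maximal dose at or under twice the top valid tested dose; inconclusive = Poor fit, or flat curve losing 30 to 70% of signal; inactive = Potency past limit, flat within 30%, or opposite direction.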

One experiment in a line: HEK293T cell cytotoxicity, dose response, cytotoxicity control, ATP luminescence, cherry-pick samples (AID 687005). As to conditions: HEK293T viability, ATP luminescence (CellTiter-Glo), 48 h; at 23.5 µM (top of the series).
Turning to `N#Cc1ccc(-c2ccc3c(c2)[C@H]2[C@H](CCN2C(=O)Cc2ccccc2)[C@@H](CO)N3)cc1`, the activity change, negative = cytotoxicity was -73.4% (inactive).

In the case of `CCCNC(=O)[C@@H]1[C@@H](CO)[C@@H]2Cn3c(cccc3=O)[C@H]1N2C(=O)Nc1cc(F)ccc1F`, the activity change, negative = cytotoxicity is 27.4% (inactive).

With `C[C@@H]1CCCCO[C@@H](CN(C)Cc2ccc3c(c2)OCO3)[C@@H](C)CN([C@H](C)CO)C(=O)c2cc(NS(=O)(=O)c3ccc(F)cc3)ccc2O1`, the activity change, negative = cytotoxicity was -35.2% (inactive).

Take `CCC(=O)N1[C@H](CO)[C@@H](c2ccc(-c3cccnc3)cc2)[C@@H]1CN(C)C(C)=O`: the activity change, negative = cytotoxicity was 3.73% (inactive).

On to `COc1cccc(S(=O)(=O)Nc2ccc3c(c2)[C@H]2C[C@@H](CC(=O)NC4CCCCC4)O[C@@H](CO)[C@H]2O3)c1`, for which the activity change, negative = cytotoxicity is -20.2% (inactive).

With `C[C@@H]1CCCCO[C@@H](CN(C)Cc2ccncc2)[C@@H](C)CN([C@@H](C)CO)C(=O)c2cc(NC(=O)c3ccncc3)ccc2O1`, the activity change, negative = cytotoxicity is 46.4% (inactive).

Staying with this experiment, now noted: HEK293T viability, ATP luminescence (CellTiter-Glo), 48 h; at 26 µM (top of the series).
For the compound `C[C@H]1CN([C@@H](C)CO)C(=O)c2cc(Br)cnc2O[C@@H]1CN(C)Cc1ccccn1`, the activity change, negative = cytotoxicity was 22.1% (inactive).

For `O=C(NC[C@@H]1[C@H](c2ccccc2)[C@@H](CO)N1C(=O)Cc1cccnc1)C1CCC1`, the activity change, negative = cytotoxicity was 8.39% (inactive).

Regarding `COc1cccc(NC(=O)CN2CCN(S(=O)(=O)c3ccc(C(C)C)cc3)CC2)c1`, the activity change, negative = cytotoxicity was 35.1% (inactive).

As for `C[C@@H](O)C#Cc1ccc([C@@H]2[C@H](CO)N3CCCCN(CC4CC4)C[C@@H]23)cc1`, the activity change, negative = cytotoxicity is -28.3% (inactive).

Take `COCC(=O)NC[C@H]1N[C@H](CO)[C@H]1c1ccc(C2=CCCC2)cc1`: the activity change, negative = cytotoxicity was -13.3% (inactive).

With `C[C@H]1CN([C@@H](C)CO)C(=O)Cc2cc(NS(C)(=O)=O)ccc2O[C@@H]1CN(C)Cc1ccc(Cl)c(Cl)c1`, the activity change, negative = cytotoxicity is 11.7% (inactive).

Consider `COc1ccc(C2CC(c3cccs3)=NN2C(=O)c2ccc(Br)o2)cc1` (stereo not drawn), for which the activity change, negative = cytotoxicity is 16.8% (inactive).

For `Cc1noc(C)c1S(=O)(=O)N(C)C[C@@H]1OCCCC[C@@H](C)Oc2ccc(NC(=O)CCCCCC(=O)Nc3ccccc3N)cc2C(=O)N([C@H](C)CO)C[C@@H]1C`, the activity change, negative = cytotoxicity is 1.87% (inactive).

On to `C[C@H]1CN([C@@H](C)CO)C(=O)Cc2cc(NS(=O)(=O)c3cn(C)cn3)ccc2O[C@@H]1CN(C)Cc1ccc(Oc2ccccc2)cc1`, for which the activity change, negative = cytotoxicity is 28.9% (inactive).

`CO[C@@H]1CN(C)C(=O)c2cc(NC(=O)Nc3cccc(F)c3)ccc2OC[C@H](C)N(C)C[C@@H]1C`: the activity change, negative = cytotoxicity was -0.56% (inactive).

Turning to `C[C@@H]1CN([C@H](C)CO)C(=O)c2cc(-c3ccc(C#N)cc3)cnc2O[C@@H]1CN(C)C(=O)Nc1ccc(F)cc1`, the activity change, negative = cytotoxicity was -0.869% (inactive).

In the case of `C[C@H]1CN([C@@H](C)CO)C(=O)Cc2cc(NS(=O)(=O)c3ccc(F)cc3)ccc2O[C@H]1CN(C)S(=O)(=O)c1ccc(F)cc1`, the activity change, negative = cytotoxicity is 6.2% (inactive).

Turning to `C=CCNC(=O)CN(c1ccc(F)cc1)S(=O)(=O)c1ccc(OC)cc1`, the activity change, negative = cytotoxicity is -6.42% (inactive).

Turning to `O=C(N[C@H]1CC[C@@H](CCn2cc(-c3ccccc3)nn2)O[C@@H]1CO)c1cnccn1`, the activity change, negative = cytotoxicity was 40.7% (inactive).

In the case of `C[C@@H]1CN([C@H](C)CO)S(=O)(=O)c2ccc(C#C[C@@H](C)O)cc2O[C@@H]1CN(C)Cc1ccncc1`, the activity change, negative = cytotoxicity was -20.8% (inactive).

With `C[C@H](CO)N1C[C@H](C)[C@H](CN(C)S(=O)(=O)c2ccccc2)Oc2ccc(NS(=O)(=O)c3ccc(F)cc3)cc2C1=O`, the activity change, negative = cytotoxicity is -25.5% (inactive).

As for `COCC(=O)N1C[C@H](C)[C@H](OC)CN(C)C(=O)c2ccc(NC(=O)NC(C)C)cc2OC[C@@H]1C`, the activity change, negative = cytotoxicity is 37.2% (inactive).

As to `Cc1ccc(S(=O)(=O)N(C)C[C@H]2Oc3c(cccc3N(C)C)C(=O)N([C@@H](C)CO)C[C@H]2C)cc1`, the activity change, negative = cytotoxicity is -16.9% (inactive).

As to `COCC#Cc1cnc2c(c1)C(=O)N([C@@H](C)CO)C[C@@H](C)[C@@H](CN(C)C(=O)C1CC1)O2`, the activity change, negative = cytotoxicity is -14.4% (inactive).

For the compound `CN(C)CCCn1c(=O)n(C2CCCCC2)c(=O)c2c3c(sc21)CCCCC3`, the activity change, negative = cytotoxicity is 50.5% (inactive).

For the compound `O=C(C[C@H]1CC[C@@H]2[C@H](COC[C@H](O)CN2CC2CCOCC2)O1)NCc1ccc(Cl)cc1`, the activity change, negative = cytotoxicity is 19% (inactive).

`C[C@H]1CN([C@@H](C)CO)C(=O)c2cccc(NS(C)(=O)=O)c2O[C@@H]1CN(C)Cc1ccc(-c2ccccc2)cc1`: the activity change, negative = cytotoxicity is -8.66% (inactive).

For the compound `O=C(CN(c1ccccc1)S(=O)(=O)c1ccc(F)cc1)NC1CCS(=O)(=O)C1` (stereo not drawn), the activity change, negative = cytotoxicity is -0.328% (inactive).

Take `CCC(=O)N(C)C[C@H]1Oc2cc(C#CC(C)(C)O)ccc2S(=O)(=O)N([C@H](C)CO)C[C@@H]1C`: the activity change, negative = cytotoxicity was 41.1% (inactive).

Turning to `CC(C)NC(=O)Nc1ccc2c(c1)CC(=O)N([C@@H](C)CO)C[C@@H](C)[C@@H](CN(C)Cc1ccc(Oc3ccccc3)cc1)O2`, the activity change, negative = cytotoxicity is -58.4% (inactive).

Turning to `CC(=O)NC[C@@H]1[C@@H](c2ccc(C3=CCCC3)cc2)[C@@H](CO)N1C(=O)NC(C)C`, the activity change, negative = cytotoxicity is 6.26% (inactive).

As for `C#CCN(C(=O)c1ccc(OC2CCN(C(=O)CCOC)CC2)cc1)C1CCCCC1`, the activity change, negative = cytotoxicity is 8.74% (inactive).

As to `Cc1c(C(=O)NC(=S)Nc2ccc(N3CCOCC3)cc2)cccc1[N+](=O)[O-]`, the activity change, negative = cytotoxicity is -33.3% (inactive).

As to `COc1ccc(NC(=O)N(C)C[C@H]2OCc3ccccc3-c3c(n(C)c4ccccc34)C(=O)N([C@H](C)CO)C[C@@H]2C)cc1`, the activity change, negative = cytotoxicity was -4.07% (inactive).

Regarding `C[C@@H](NC(=O)C[C@@H]1CC[C@H]2[C@@H](COC[C@@H](O)CN2Cc2cc(F)ccc2F)O1)c1ccccc1`, the activity change, negative = cytotoxicity is -19.7% (inactive).

On to `CCCNC(=O)N1[C@H](CO)[C@@H](c2ccc(C3=CCCC3)cc2)[C@@H]1CN(C)C(C)=O`, for which the activity change, negative = cytotoxicity is 37.6% (inactive).

With `COc1ccc(NC(=O)N(C)C[C@H]2OCCCC[C@H](C)Oc3ccc(NC(=O)C4CCCCC4)cc3C(=O)N([C@@H](C)CO)C[C@@H]2C)cc1`, the activity change, negative = cytotoxicity was -27.2% (inactive).

Regarding `C[C@H](CO)N1C[C@H](C)[C@@H](CN(C)Cc2ccncc2)Oc2ccc(NC(=O)CCC(F)(F)F)cc2C1=O`, the activity change, negative = cytotoxicity is -2.07% (inactive).

For the compound `CCCC(=O)N1CCCC1(C)C(=O)Nc1cc(C)ccc1C` (stereo not drawn), the activity change, negative = cytotoxicity was 3.87% (inactive).

As for `CCCN1C[C@H](C)[C@@H](OC)CN(C)C(=O)c2cc(NC(=O)c3cccc(F)c3)ccc2OC[C@H]1C`, the activity change, negative = cytotoxicity was 10.2% (inactive).

As to `CNC[C@@H]1OCCCC[C@@H](C)Oc2ccc(NC(=O)NC(C)C)cc2C(=O)N([C@@H](C)CO)C[C@H]1C`, the activity change, negative = cytotoxicity is 34.5% (inactive).

With `C[C@@H]1CCCCO[C@@H](CN(C)C(=O)NC2CCCCC2)[C@H](C)CN([C@@H](C)CO)C(=O)c2cc(NS(=O)(=O)c3cn(C)cn3)ccc2O1`, the activity change, negative = cytotoxicity is 36.8% (inactive).

For `O=C(NC(=S)Nc1ccccc1N1CCCC1)c1ccc([N+](=O)[O-])cc1`, the activity change, negative = cytotoxicity was -8.4% (inactive).

For the compound `O=C(C[C@@H]1C=C[C@@H](NC(=O)c2cccc(F)c2)[C@H](CO)O1)NCCN1CCCC1`, the activity change, negative = cytotoxicity is 20.8% (inactive).

On to `C[C@@H]1CN([C@@H](C)CO)C(=O)c2cc(NC(=O)Nc3ccccc3)ccc2O[C@@H]1CN(C)C(=O)Nc1cccc2ccccc12`, for which the activity change, negative = cytotoxicity was 203% (inactive).

For the compound `C[C@H](CO)N1C[C@H](C)[C@@H](CN(C)S(=O)(=O)c2ccccc2)Oc2c(NC(=O)Nc3cccc4ccccc34)cccc2C1=O`, the activity change, negative = cytotoxicity is 35.2% (inactive).

For the compound `C[C@@H]1CN([C@@H](C)CO)C(=O)c2cc(C3=CCCCC3)cnc2O[C@H]1CN(C)C(=O)Cc1cccnc1`, the activity change, negative = cytotoxicity is -18.3% (inactive).

`CCCNC(=O)N1C[C@H](O)COC[C@H]2O[C@H](CC(=O)N3CCN(C)CC3)CC[C@@H]21`: the activity change, negative = cytotoxicity was -14.1% (inactive).

As to `COc1cccc(S(=O)(=O)N2C[C@@H](O)COC[C@H]3O[C@H](CC(=O)N4CCN(C)CC4)CC[C@@H]32)c1`, the activity change, negative = cytotoxicity is -1.64% (inactive).

`Cc1ccc(S(=O)(=O)N(CC(=O)NCCSC2CCCCC2)c2ccccc2F)cc1`: the activity change, negative = cytotoxicity was 5.79% (inactive).

For `CO[C@H]1CN(C)C(=O)c2cc(NC(=O)c3ccccc3F)ccc2OC[C@H](C)N(CC2CCOCC2)C[C@H]1C`, the activity change, negative = cytotoxicity is 57% (inactive).

For the compound `COc1ccccc1NC(=S)NCc1ccc(Cl)cc1`, the activity change, negative = cytotoxicity is -4.64% (inactive).

With `CC=Cc1ccc2n(c1=O)C[C@H]1[C@H](CO)[C@@H](C(=O)NCc3ccc4c(c3)OCO4)[C@@H]2N1C(=O)C1CC1` (mixture of isomers), the activity change, negative = cytotoxicity is -15.5% (inactive).

Still in this experiment, the particulars now being: HEK293T viability, ATP luminescence (CellTiter-Glo), 48 h; at 35 µM (top of the series).
In the case of `Cc1cc(C)c(N2CCCC2C(=O)Nc2cccc(C(F)(F)F)c2)c(C)c1` (stereo not drawn), the activity change, negative = cytotoxicity was -7.11% (inactive).

Still in this experiment, the particulars now being: HEK293T viability, ATP luminescence (CellTiter-Glo), 48 h; at 38 µM (top of the series).
Consider `CCCC(C)(C)C(=O)N1CCC1(C)C(=O)Nc1ccc(C)cc1` (stereo not drawn), for which the activity change, negative = cytotoxicity was -11.3% (inactive).

The same experiment, now with this note: HEK293T viability, ATP luminescence (CellTiter-Glo), 48 h; at 42 µM (top of the series).
Turning to `CCCC(=O)N1CCCC1(C)C(=O)Nc1cc(C)ccc1C` (stereo not drawn), the activity change, negative = cytotoxicity is -20.6% (inactive).

Still in this experiment, the particulars now being: HEK293T viability, ATP luminescence (CellTiter-Glo), 48 h; at 50 µM (top of the series).
In the case of `Cc1ccc(OCC(=O)NCc2ccccc2)cc1`, the activity change, negative = cytotoxicity was 29% (inactive).
